Structures can show the parent of a compound that is named as a salt.
Tests used:
human μ opioid receptor = human μ opioid receptor (Homo sapiens (Human), UniProt P35372); assay: Functional activity ([35S]GTPγS binding); format: biochemical; settings: [35S]GTPγS 0.080 nM, CHO cell membranes, 60 min at 30° C., filtration
Procedure: The [^35S]GTPγS assay measures the functional properties of a compound by quantifying the level of G-protein activation following agonist binding in studies using stably transfected cells, and is considered to be a measure of the efficacy of a compound. Membranes from CHO (Chinese Hamster Ovary) cells that stably expressed one type of the cloned human opioid receptor human were used in the experiments. In a final volume of 0.5 mL, 12 different concentrations of each test compound were incubated with 7.5 μg of CHO cell membranes that stably expressed the human p opioid receptor. The assay buffer consisted of 50 mM Tris-HCl, pH 7.4, 3 mM MgCl2, 0.2 mM EGTA, 3 μM GDP, and 100 mM NaCl. The final concentration of [35S]GTPγS was 0.080 nM. Nonspecific binding was measured by inclusion of 10 μM GTPγS. Binding was initiated by the addition of the membranes. After an incubation of 60 min at 30° C., the samples were filtered through Schleicher & Schuell No. 32 glass fiber filters. The filters were washed three times with cold 50 mM Tris-HCl, pH 7.5, and were counted in 2 mL of Ecoscint scintillation fluid.

μ-receptor = μ-receptor (Homo sapiens (Human), UniProt P35372); assay: Receptor binding, competitive displacement of [3H]DAMGO; settings: 0.25 nM [3H]DAMGO, CHO cell membrane protein, 60 min at 25° C.
Procedure: The Ki (binding affinity) for μ-receptor was determined with a previously described method using a competitive displacement assay (Neumeyer et al., J. Med. Chem., v. 46, p. 5162-5170, 2003). Membrane protein from CHO (Chinese Hamster Ovarian) cells that stably expressed one type of the cloned human opioid receptor were incubated with 12 different concentrations of the compound in the presence of 0.25 nM [3H]DAMGO, 0.2 nM [3H]naltrindole or 1 nM [3H]U69,593 in a final volume of 1 mL of 50 mM Tris-HCl, pH 7.5 at 25° C. Incubation times of 60 min were used for [3H]DAMGO and [3H]U69,593. Because of a slower association of [3H]naltrindole with the receptor, a 3 h incubation was used with this radioligand. Samples incubated with [3H]naltrindole also contained 10 mM MgCl2 and 0.5 mM phenylmethylsulfonyl fluoride. Nonspecific binding was measured by inclusion of 10 μM naloxone. The binding was terminated by filtering the samples through Schleicher & Schuell No. 32 glass fiber filters using a Brandel 48-well cell harvester. The filters were subsequently washed three times with 3 mL of cold 50 mM Tris-HCl, pH 7.5, and were counted in 2 mL Ecoscint A scintillation fluid. For [3H]naltrindole and [3H]U69,593 binding, the filters were soaked in 0.1% polyethylenimine for at least 60 min before use. IC50 values will be calculated by least squares fit to a logarithm-probit analysis. Ki values of unlabelled compounds were calculated from the equation Ki=(IC50)/1+S where S=(concentration of radioligand)/(Kd of radioligand) (Cheng and Prusoff, Biochemical Pharmacology, v. 22, p. 3099-3108, 1973).

SMILES	EC50 (human μ opioid receptor)	Ki (μ-receptor)
COC1(c2cccc(C(N)=O)c2)C2CCCC1CN(C1CC3CCC(C1)O3)C2 (single isomer, unassigned) [Compound 14, hydrochloride]	> 75 nM	1 to 5 nM
COC[C@H](C)N1CC2CCCC(C1)C2(OC)c1ccnc(C(N)=O)c1.Cl (single isomer, unassigned) [Compound 61, hydrochloride]	10 to 75 nM	1 to 5 nM
COC[C@@H](C)N1CC2CCCC(C1)C2(OC)c1ccnc(C(N)=O)c1 (single isomer, unassigned) [Compound 62, hydrochloride]	> 75 nM	> 5 nM
CCC[C@H](C)N1CC2CCCC(C1)C2(OC)c1ccnc(C(N)=O)c1 (single isomer, unassigned) [Compound 134, hydrochloride]	10 to 75 nM	< 1 nM
COC1(c2ccnc(C(N)=O)c2)C2CCCC1CN(C[C@@H]1CCCO1)C2 (single isomer, unassigned) [Compound 135, hydrochloride]	10 to 75 nM	1 to 5 nM
COC1(c2ccnc(C(N)=O)c2)C2CCCC1CN(C[C@H]1CCCO1)C2.Cl (single isomer, unassigned) [Compound 136, hydrochloride]	10 to 75 nM	> 5 nM
CCC[C@@H](C)N1CC2CCCC(C1)C2(OC)c1ccnc(C(N)=O)c1 (single isomer, unassigned) [Compound 137, hydrochloride]	10 to 75 nM	1 to 5 nM
COC1(c2cccc(C(N)=O)c2)C2CCCC1CN([C@H]1CCCOC1)C2.Cl (single isomer, unassigned) [Compound 140, hydrochloride]	10 to 75 nM	< 1 nM
COC1(c2cccc(C(N)=O)c2)C2CCCC1CN([C@@H]1CCCOC1)C2 (single isomer, unassigned) [Compound 141, hydrochloride]	10 to 75 nM	< 1 nM
COC1(c2cccc(C(N)=O)c2)C2CCCC1CN(C[C@@H]1CCOC1)C2.Cl (single isomer, unassigned) [Compound 143, hydrochloride]	< 10 nM	< 1 nM
COC1(c2ccnc(C(N)=O)c2)C2CCCC1CN([C@H]1CC[C@@H]1C)C2 (single isomer, unassigned) [Compound 144, hydrochloride]	10 to 75 nM	< 1 nM
COC1(c2cccc(C(N)=O)c2)C2CCCC1CN(C[C@H]1CCOC1)C2 (single isomer, unassigned) [Compound 148, hydrochloride]	< 10 nM	< 1 nM
COC1(c2ccnc(C(N)=O)c2)C2CCCC1CN([C@H]1CC[C@@H]1C)C2 (stereo in doubt) [Compound 147, 4-((1R,5S,9R)-9-methoxy-3-((1R,2R)-2-methylcyclobutyl)-3-azabicyclo[3.3.1]nonan-9-yl)picolinamide hydrochloride]	10 to 75 nM	1 to 5 nM
COC1(c2ccnc(C(N)=O)c2)C2CCCC1CN(CCS(C)(=O)=O)C2 [Compound 8, 4-((1R,5S,9r)-9-methoxy-3-(2-(methylsufonyl)ethyl)-3-azabicyclo[3.3.1]nonan-9-yl)picolinamide hydrochloride]		> 5 nM
COC1(c2ccnc(C(N)=O)c2)C2CCCC1CN(CC1(F)CCOCC1)C2 [Compound 15, 4-((1R,5S,9r)-34(4-fluorotetrahydro-2H-pyran-4-yl)methyl)-9-methoxy-3-azabicyclo[3.3.1]nonan-9-yl)picolinamide hydrochloride]		> 5 nM
COC1(c2cccc(C(N)=O)c2)C2CCCC1CN(C(C)C)C2 [Compound 25, 3-((1R,5S,9r)-3-isopropyl-9-methoxy-3-azabicyclo[3.3.1]nonan-9-yl)benzamide hydrochloride]		< 1 nM

SMILES	EC50 (human μ opioid receptor)	Ki (μ-receptor)
COC1(c2cncc(C(N)=O)c2)C2CCCC1CN(CC1CC1)C2 [Compound 28, 5-((1R,5S,9r)-3-(cyclopropylmethyl)-9-methoxy-3-azabicyclo[3.3.1]nonan-9-yl)nicotinamide hydrochloride]		> 5 nM
COC1(c2ccc(C(N)=O)cc2)C2CCCC1CN(CC1CC1)C2 [Compound 31, 4-((1R,5S,9r)-3-(cyclopropylmethyl)-9-methoxy-3-azabicyclo[3.3.1]nonan-9-yl)benzamide hydrochloride]		> 5 nM
COC1(c2cccc(C(N)=O)c2)C2CCCC1CN(CC(F)(F)F)C2 [Compound 32, 3-((1R,5S,9r)-9-methoxy-3-(2,2,2-trifluoroethyl)-3-azabicyclo[3.3.1]nonan-9-yl)benzamide hydrochloride]		> 5 nM
COC1(c2cccc(C(N)=O)n2)C2CCCC1CN(C)C2 [Compound 33, 6-((1R,5S,9r)-9-methoxy-3-methyl-3-azabicyclo[3.3.1]nonan-9-yl)picolinamide hydrochloride]		> 5 nM
COC1(c2ccc(F)c(C(N)=O)c2)C2CCCC1CN(C)C2 [Compound 41, 2-fluoro-5-((1R,5S,9r)-9-methoxy-3-methyl-3-azabicyclo[3.3.1]nonan-9-yl)benzamide hydrochloride]		> 5 nM
COC1(c2cc(C(N)=O)ccn2)C2CCCC1CN(C)C2 [Compound 44, 2-((1R,5S,9r)-9-methoxy-3-methyl-3-azabicyclo[3.3.1]nonan-9-yl)isonicotinamide hydrochloride]		1 to 5 nM
COC1(c2cc(O)cc(C(N)=O)c2)C2CCCC1CN(C)C2 [Compound 52, 3-hydroxy-5-((1R,5S,9r)-9-methoxy-3-methyl-3-azabicyclo[3.3.1]nonan-9-yl)benzamide hydrochloride]		> 5 nM
COC1(c2cc(C(N)=O)cs2)C2CCCC1CN(CC1CC1)C2 [Compound 59, 5-((1R,5S,9r)-3-(cyclopropylmethyl)-9-methoxy-3-azabicyclo[3.3.1]nonan-9-yl)thiophene-3-carboxamide hydrochloride]		1 to 5 nM
COC1(c2ccnc(C(N)=O)c2)C2CCCC1CN(CCN1CCOC1=O)C2 [Compound 80, 4-((1R,5S,9r)-9-methoxy-3-(2-(2-oxooxazolidin-3-yl)ethyl)-3-azabicyclo[3.3.1]nonan-9-yl)picolinamide hydrochloride]		> 5 nM
COC1(c2ccnc(C(N)=O)c2)C2CCCC1CN(C1CN(C(C)=O)C1)C2 [Compound 84, 4-((1R,5S,9r)-3-(1-acetylazetidin-3-yl)-9-methoxy-3-azabicyclo[3.3.1]nonan-9-yl)picolinamide hydrochloride]		> 5 nM
COC1(c2ccnc(C(N)=O)c2)C2CCCC1CN(CC(C)(C)C)C2 [Compound 105, 4-((1R,5S,9r)-9-methoxy-3-neopentyl-3-azabicyclo[3.3.1]nonan-9-yl)picolinamide hydrochloride]		> 5 nM
COC1(c2ccnc(C(N)=O)c2)C2CCCC1CN([C@@H]1CC[C@@H]1c1ccccc1)C2 (stereo partly drawn) [Compound 110, 4-((1R,5S,9R)-9-methoxy-3-((1R,2R)-2-phenylcyclobutyl)-3-azabicyclo[3.3.1]nonan-9-yl)picolinamide hydrochloride]		> 5 nM
COC1(c2ccnc(C(N)=O)c2)C2CCCC1CN([C@H]1CC[C@H]1c1ccccc1)C2 (stereo partly drawn) [Compound 116, 4-((1R,5S,9s)-9-methoxy-3-((1S,2S)-2-phenylcyclobutyl)-3-azabicyclo[3.3.1]nonan-9-yl)picolinamide (S)-2-hydroxysuccinate]		> 5 nM
COC1(c2ccnc(C(N)=O)c2)C2CCCC1CN(Cc1cc3ccccc3[nH]1)C2 [Compound 119, 4-((1R,5S,9r)-3-((1H-indol-2-yl)methyl)-9-methoxy-3-azabicyclo[3.3.1]nonan-9-yl)picolinamide (S)-2-hydroxysuccinate]	< 10 nM	
COC1(c2ccnc(C(N)=O)c2)C2CCCC1CN(Cc1cccc(=O)[nH]1)C2 [Compound 120, 4-((1R,5S,9r)-34(6-hydroxypyridin-2-yl)methyl)-9-methoxy-3-azabicyclo[3.3.1]nonan-9-yl)picolinamide hydrochloride]		> 5 nM
COC1(c2ccnc(C(N)=O)c2)C2CCCC1CN(Cc1cnnn1C)C2 [Compound 125, 4-((1R,5S,9r)-9-methoxy-3-((1-methyl-1H-1,2,3-triazol-5-yl)methyl)-3-azabicyclo[3.3.1]nonan-9-yl)picolinamide hydrochloride]		> 5 nM

Reference: patent US10604489B2, “Compounds for the treatment of pain” (priority 2018, dated 2020)
